# Results: patent US20090215707A1, “COMPOUND HAVING CYCLIC STRUCTURE AND USE THEREOF” (RIKEN, priority 2005, published 2009)
# Tested on: spleen cells
# Assay: Cytokine (IFN-γ, IL-4) production in mouse spleen cell culture, sandwich ELISA assay
# Format: cell-based
# Settings: mouse spleen cells 2×10^5 cells/well, reagent at 2, 20 and 200 ng/mL, supernatant 4 days later, values only in FIG. 1-6
# Description: The spleen cells removed from the spleen of mouse were individually prepared to 2×10^5 cells/well (96-well plate) using RPMI1640 culture medium (manufactured by Sigma Corporation) containing 10% fetal calf serum (FCS). A reagent was added to the culture medium at each of the concentrations of 2 ng/mL, 20 ng/mL and 200 ng/mL. The cytokine amount in the culture supernatant 4 days later was measured by sandwich ELISA assay. As the test substances, compounds 33 and 34 obtained in Examples 14 and 15 were used, and α-galactosylceramide represented by the following formula (a) (α-GC, abbreviated as compound a in the Figure) was used as a control substance. In addition, DMSO was used as a control.
# The cytokine amount was measured by sandwich ELISA assay in the same manner as in Experimental Example 1 except that compound 23 obtained in Example 6 was used as a test substance. In addition, the time course changes in the amount of IFN-γ production are shown in FIG. 5, and the time course changes in the amount of IL-4 production are shown in FIG. 6.
row,Compound,cytokine production pattern (IFN-γ and IL-4 production amount in culture supernatant)
1,CCCCCCCCCCCCCCCCCCCCCCCCCC(=O)N1[C@@H](CCCCCCCCCCCCCC)[C@@H](O)[C@@H]1COC1OC(CO)C(O)C(O)C1O (stereo partly shown) [compound 23],ability to preferentially induce IL-4 production
2,CCCCCCCCCCCCCCCCCCCCCCCCCC(=O)N1[C@@H](CCCCCCCCCCCCC)C[C@@H](O)[C@@H]1COC1OC(CO)C(O)C(O)C1O (stereo partly shown) [compound 33],IL-4 preferential cytokine production pattern
3,CCCCCCCCCCCCCCCCCCCCCCCCCC(=O)N1[C@@H](CCCCCCCCCCCCC)C[C@@H](O)[C@@H]1COC1OC(CO)C(O)C(O)C1O (stereo partly shown) [compound 34],IL-4 preferential cytokine production pattern
4,"CCCCCCCCCCCCCCCCCCCCCCCCCC(=O)N[C@@H](COC1OC(CO)C(O)C(O)C1O)[C@H](O)[C@H](O)CCCCCCCCCCCCCC (stereo partly drawn) [α-galactosylceramide, reference compound]",produced both IFN-γ and IL-4 in large amounts
